For series [1] the following is noted: DTA.
Series [2] is described as follows: Molar enthalpy of transition or fusion. To be noted: DSC.

Each structure is given as a SMILES string. ± gives the expanded uncertainty stated by the source.

For `CC[C@H](C)[C@H](NC(C)=O)C(=O)NC` (racemic) [N-acetyl-N'-methyl-DL-isoleucinamide], the Triple point temperature in series [1] (Crystal) came to 482.02 ± 0.39 K. Moreover, the “Molar enthalpy of transition or fusion” value in series [2] (Crystal) came out at 6.48 ± 0.143 kcal/mol.
Consider `CCCC(NC(C)=O)C(=O)NC` (racemic) [N-acetyl-N'-methyl-DL-norvalinamide], for which the Triple point temperature in series [1] (Crystal) is listed as 432.29 ± 0.39 K. Besides, the “Molar enthalpy of transition or fusion” value in series [2] (Crystal) is 6.27 ± 0.143 kcal/mol.
Turning to `CNC(=O)C1CCCN1C(C)=O` (stereo unspecified) [1-acetyl-N-methylprolinamide], in series [1] (Crystal), the Triple point temperature came out at 378.12 ± 0.39 K. Also, the “Molar enthalpy of transition or fusion” value in series [2] (Crystal) stood at 6.23 ± 0.139 kcal/mol.
`CNC(=O)CNC(C)=O` [2-acetamido-N-methylacetamide]: the Triple point temperature in series [1] (Crystal) turned out to be 430.73 ± 0.39 K. The “Molar enthalpy of transition or fusion” value in series [2] (Crystal) stood at 5.65 ± 0.129 kcal/mol.
For `CCC(NC(C)=O)C(=O)NC` (stereo unspecified) [2-acetamido-N-methylbutanamide], in that order: 434.83 ± 0.4 K and 5.91 ± 0.134 kcal/mol.
`CCCCC(NC(C)=O)C(=O)NC` (stereo unspecified) [2-acetamido-N-methylhexanamide]: the Triple point temperature in series [1] (Crystal) was 444 ± 0.39 K. Also, the “Molar enthalpy of transition or fusion” value in series [2] (Crystal) amounted to 8.21 ± 0.177 kcal/mol.
Consider `CNC(=O)C(C)NC(C)=O` (stereo unspecified) [2-acetamido-N-methylpropanamide], for which the Triple point temperature came out at 411.9 ± 2 K in series [1] (Crystal 1) and 368.43 ± 0.39 K in series [1] (Crystal 2). Besides, the “Molar enthalpy of transition or fusion” value is 3.8 ± 0.115 kcal/mol in series [2] (Crystal 1) and 1.84 ± 0.0765 kcal/mol in series [2] (Crystal 2).
As for `CNC(=O)[C@@H]1CCCN1C(C)=O` [(2S)-1-acetyl-N-methyl-2-pyrrolidinecarboxamide], the Triple point temperature in series [1] (Crystal) is 375.85 ± 0.39 K. Moreover, the “Molar enthalpy of transition or fusion” value in series [2] (Crystal) stood at 5.96 ± 0.134 kcal/mol.
With `CC[C@H](C)[C@H](NC(C)=O)C(=O)NC` [(2S,3S)-2-acetamido-N,3-dimethylpentanamide], the Triple point temperature in series [1] (Crystal) is listed as 525.72 ± 0.39 K. Besides, the “Molar enthalpy of transition or fusion” value in series [2] (Crystal) was found to be 9.11 ± 0.21 kcal/mol.
For `CNC(=O)[C@H](CC(C)C)NC(C)=O` [(S)-2-acetamido-N,4-dimethylpentanamide], in that order: 438.2 ± 0.39 K and 5.54 ± 0.127 kcal/mol.
As to `CNC(=O)[C@H](C)NC(C)=O` [(S)-2-acetamido-N-methylpropanamide], the Triple point temperature is reported as 454.8 ± 0.39 K in series [1] (Crystal 1) and 395.07 ± 0.41 K in series [1] (Crystal 2). Moreover, the “Molar enthalpy of transition or fusion” value in series [2] (Crystal 1) is 5.94 ± 0.134 kcal/mol; in series [2] (Crystal 2), 1.34 ± 0.0454 kcal/mol.

For the origin of these results see the NIST ThermoML archive (doi:10.1016/j.jct.2013.12.016).
